Reference: US20150174095A1, “PHARMACEUTICAL COMPOSITIONS FOR THE TREATMENT OF VISUAL SYSTEM DISORDERS” (Allergan, Inc., priority 2013, published 2015)
pIC50: −log10 of the molar value.

Columns and labels:
[1] = tested on: LTP in primary visual cortex; experiment: Visual cortex slice physiology: long-term potentiation (LTP); design: species or system rat
Description: Following decapitation of the rat, the brain was rapidly removed and immersed in ice-cold artificial cerebrospinal fluid (ACSF) containing 124 mM NaCl, 3 mM KCl, 1.25 mM KH2PO4, 3.4 mM CaCl2, 2.5 mM MgSO4, 26 mM NaHCO3, and 10 mM D-glucose. A block of visual cortex was created by removing the frontal ⅔ portion of the brain and the cerebellum. Coronal visual cortex slices of 375 μm were prepared from adult Sprague Dawley (SD) rats using a vibratome (VT 1000 S; Leica). The slices were maintained in an interface recording chamber perfused with preheated ACSF. Slices were continuously perfused with this solution at a rate of 1.00-1.50 ml/min while the surface of the slices was exposed to warm, humidified 95% O2/5% CO2 and maintained at 31±1° C. Visual cortex slices were allowed to recover for 1 hr before recording began. A single stimulating and recording electrode were placed in layer IV and III, respectively, to generate and record a field excitatory postsynaptic potentials (fEPSPs). […] This was repeated 2 additional times with a 1 minute intertrain interval, and the level of LTP was recorded for at least 30 min. Changes in amplitude of the synaptic response were used to measure the extent of LTP because it was determined to be the more consistent parameter than the slope of the response. […]

human ASCT1 [2] = biological target: T1, human ASCT1 (Homo sapiens, UniProt P43007); experiment: Whole cell patch-clamp transport currents in HEK cells expressing human ASCT1; type: cell-based; conditions: for effect on substrate-evoked inward current: HEK ASCT1, with 0.3 mM L-serine; for current in the absence of applied substrate: HEK ASCT1, without L-serine
T1 construct: expressed in transfected cells; host or cells: HEK293 cells stably expressing ASCT1
T1 sequence (P43007 1-532): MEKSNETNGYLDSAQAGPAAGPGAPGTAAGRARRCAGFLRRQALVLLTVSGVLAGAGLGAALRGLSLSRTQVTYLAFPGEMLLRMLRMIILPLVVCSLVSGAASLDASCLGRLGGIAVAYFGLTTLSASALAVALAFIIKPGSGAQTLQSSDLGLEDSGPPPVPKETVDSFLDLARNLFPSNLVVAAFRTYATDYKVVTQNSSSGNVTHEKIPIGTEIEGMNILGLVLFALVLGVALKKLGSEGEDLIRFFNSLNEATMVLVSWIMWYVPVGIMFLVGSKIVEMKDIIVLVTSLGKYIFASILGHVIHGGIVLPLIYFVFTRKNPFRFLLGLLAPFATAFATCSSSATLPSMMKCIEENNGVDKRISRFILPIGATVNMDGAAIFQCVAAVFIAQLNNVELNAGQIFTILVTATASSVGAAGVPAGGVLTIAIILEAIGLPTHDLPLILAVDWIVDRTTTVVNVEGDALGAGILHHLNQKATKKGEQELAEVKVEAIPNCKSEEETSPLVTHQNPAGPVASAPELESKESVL
Description: (§1) Patch-Clamp Recording in HEK 293 Cells (FIGS. 1A, 1B, 2A and 2B):
(§2) Transport currents were recorded in human embryonic kidney (HEK) cells expressing human ASCT1 or ASCT2 transporter using whole cell patch-clamp. Extracellular solution contains: 140 mM NaCl, 2.0 mM MgCl2, 2.0 CaCl2, 10 mM HEPES, pH 7.4. The recording pipettes were filled with ICM containing: 130 mM NaSCN, 10 mM EGTA, 2 mM MgCl2, 10 mM HEPES, 10 mM L-alanine pH 7.3. The inhibitory effects of compounds were measured without/with 300 μM L-serine and normalized to these by 4-hydroxy-phenyglycine (100%).

human ASCT2 [3] = biological target: T2, human ASCT2 (Homo sapiens, UniProt Q15758); experiment: Whole cell patch-clamp transport currents in HEK cells expressing human ASCT2; type: cell-based; conditions: for effect on substrate-evoked inward current: HEK ASCT2, with 0.3 mM L-serine; for current in the absence of applied substrate: HEK ASCT2, without L-serine
T2 construct: expressed in transfected cells; host or cells: HEK293 cells stably expressing ASCT2
T2 sequence (Q15758 1-541): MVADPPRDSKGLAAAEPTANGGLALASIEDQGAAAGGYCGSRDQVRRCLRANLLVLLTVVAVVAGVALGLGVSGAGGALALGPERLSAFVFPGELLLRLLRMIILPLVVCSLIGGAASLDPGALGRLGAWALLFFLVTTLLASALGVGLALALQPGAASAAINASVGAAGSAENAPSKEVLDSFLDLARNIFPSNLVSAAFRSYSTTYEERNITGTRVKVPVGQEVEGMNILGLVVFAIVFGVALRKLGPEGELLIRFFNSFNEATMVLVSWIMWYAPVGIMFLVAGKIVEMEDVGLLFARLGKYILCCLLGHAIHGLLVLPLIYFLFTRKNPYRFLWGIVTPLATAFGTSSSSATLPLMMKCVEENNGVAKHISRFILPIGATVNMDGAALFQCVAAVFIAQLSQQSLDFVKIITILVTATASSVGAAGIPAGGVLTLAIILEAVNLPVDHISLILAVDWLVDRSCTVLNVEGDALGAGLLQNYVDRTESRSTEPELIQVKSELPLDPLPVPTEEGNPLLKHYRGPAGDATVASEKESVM
Description: as §1, §2

human ASCT2 [4] = biological target: T2, human ASCT2; experiment: [3H]L-serine transport into HEK cells expressing recombinant human ASCT2; type: cell-based; conditions: inhibition of [3H]L-serine transport, HEK cells with human ASCT2, n of 3-4; read-out: HEK1A5 ASCT2 IC50
Description: (§3) Cell-based assays: the transport of [^3H]L- or D-serine was measured in primary cultures of rat hippocampal astrocytes or in human embryonic kidney (HEK) cells expressing ASCT transporter sub-types. For the astrocyte assays, cells were plated on either 24- or 96-well plates at a density of 50,000 cells per well. For the HEK assays, cells were plated on coated 96-well plates at a density of 80,000 cells/well. Assays were conducted in duplicate at room temperature in assay buffer consisting of: NaCl: 150 mM, KCl: 2 mM; MgCl2: 1 mM; CaCl2: 1 mM; HEPES: Tris buffer: 10 mM, pH7.4. To assess the sodium-dependence of transport, NaCl was replaced in the assay buffer by equimolar choline chloride. Following aspiration of growth medium and 2 washes with assay buffer, cells were incubated with [^3H]L- or D-serine at a final concentration of 1 μM for 5 min (astrocytes) or 1 min (HEK cells), after which the incubation medium was aspirated and the cells washed twice with ice-cold assay buffer. Cells containing radiolabel were solubilized in 100 μl of 1% Triton-X100 and an aliquot counted in a beta counter. IC50 values were determined over a range of at least 6 concentrations and derived from curve-fitting algorithms available in GraphPad Prism 4. Table 2 reflects the IC50 values for the inhibition of [^3H]L-serine transport into astrocytes and HEK cells expressing recombinant human ASCT1 or ASCT2. […]

ASCT1/2 = experiment: [3H]L-serine transport into primary rat hippocampal astrocytes; type: cell-based; conditions: for pIC50: inhibition of [3H]L-serine transport, rat astrocytes, 6-12 point curves, n of 3-4, read-out: Astro ASCT1/2 IC50; for inhibition of radiolabelled substrate transport: rat brain astrocytes in culture
Description: Cell-based assays: the transport of [^3H]L- or D-serine was measured in primary cultures of rat hippocampal astrocytes or in human embryonic kidney (HEK) cells expressing ASCT transporter sub-types. For the astrocyte assays, cells were plated on either 24- or 96-well plates at a density of 50,000 cells per well. For the HEK assays, cells were plated on coated 96-well plates at a density of 80,000 cells/well. Assays were conducted in duplicate at room temperature in assay buffer consisting of: NaCl: 150 mM, KCl: 2 mM; MgCl2: 1 mM; CaCl2: 1 mM; HEPES: Tris buffer: 10 mM, pH7.4. To assess the sodium-dependence of transport, NaCl was replaced in the assay buffer by equimolar choline chloride. Following aspiration of growth medium and 2 washes with assay buffer, cells were incubated with [^3H]L- or D-serine at a final concentration of 1 μM for 5 min (astrocytes) or 1 min (HEK cells), after which the incubation medium was aspirated and the cells washed twice with ice-cold assay buffer. Cells containing radiolabel were solubilized in 100 μl of 1% Triton-X100 and an aliquot counted in a beta counter. IC50 values were determined over a range of at least 6 concentrations and derived from curve-fitting algorithms available in GraphPad Prism 4. Table 2 reflects the IC50 values for the inhibition of [^3H]L-serine transport into astrocytes and HEK cells expressing recombinant human ASCT1 or ASCT2. Values are IC50's in μM from 6-12 point inhibition curves, with an n of 3-4.

human ASCT1 [5] = biological target: T1, human ASCT1; experiment: [3H]L-serine transport into HEK cells expressing recombinant human ASCT1; type: cell-based; conditions: inhibition of [3H]L-serine transport, HEK cells with human ASCT1, n of 3-4; read-out: HEK1A4 ASCT1 IC50
Description: as §3

Row | Structure (SMILES) | effect on LTP in rat visual cortex slice ([1]; 0.1 and 0.3 μM) | concentration that enhanced LTP in visual cortex ([1]; rat visual cortex slice, as low as) | effect on substrate-evoked inward current (human ASCT1 [2]) | current in the absence of applied substrate (human ASCT1 [2]) | effect on substrate-evoked inward current (human ASCT2 [3]) | current in the absence of applied substrate (human ASCT2 [3]) | pIC50 (human ASCT2 [4]) | pIC50 (ASCT1/2) | inhibition of radiolabelled substrate transport (ASCT1/2) | pIC50 (human ASCT1 [5])
1 | O=C(O)[C@@H]1NC[C@H](OCc2ccc(-c3ccccc3)cc2)[C@H]1O (stereo in doubt) [(2R,3S,4S)-4-(biphenyl-4-ylmethoxy)-3-hydroxypyrrolidine-2-carboxylic acid] | dose-dependently facilitates long-term potentiation (LTP) | ≤ 0.1 µM | inhibited the substrate-evoked inward current | evoked an outward current | inhibited the substrate-evoked inward current | evoked an outward current | 5.55 | 6.22 | completely inhibited | 5.44
2 | O=C(O)[C@@H]1NC[C@H](OCc2cccc(Oc3ccccc3)c2)[C@H]1O (stereo in doubt) [(2R,3S,4S)-3-hydroxy-4-[(3-phenoxybenzyl)oxy]pyrrolidine-2-carboxylic acid] | – | – | inhibited the substrate-evoked inward current | evoked an outward current | inhibited the substrate-evoked inward current | evoked an outward current | 4.19 | 4.97 | completely inhibited | 4.33
